Reference: PubChem BioAssay (NCI)
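Results reflect a 48-hour exposure of cells in 96-well plates to compound at five concentrations. GI50 = concentration required for 50% inhibition of growth. TGI denotes the concentration required for complete inhibition of growth.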

What was measured:
Assay in all cases: inhibition of tumour cell growth, NCI panel, 48 h
[1] = tested on: LOX IMVI melanoma
[2] = tested on: HCT-15 colon
[3] = tested on: HCC-2998 colon
[4] = tested on: NCI-H23 lung
[5] = tested on: HT29 colon
[6] = tested on: NCI-H522 lung
[7] = tested on: KM12 colon
[8] = tested on: HOP-62 NSCLC
[9] = tested on: SNB-19 CNS
[10] = tested on: MCF7 breast

Cc1cc(Cl)ccc1NC(=O)C1C(=O)N(c2ccc(Cl)cc2C)C(=O)/C1=N\N (stereo not drawn)
TGI [1]: > 100 µM | TGI [2]: > 100 µM | TGI [3]: 67.3 µM | TGI [4]: > 100 µM | TGI [5]: > 100 µM | TGI [6]: > 100 µM | TGI [7]: > 100 µM | TGI [8]: > 100 µM | TGI [9]: > 100 µM

Cc1ccccc1NC(=O)c1[nH]c(=S)nc(N)c1-c1ccccc1C
TGI [1]: > 100 µM | TGI [2]: > 100 µM | TGI [3]: > 100 µM | TGI [4]: > 100 µM | TGI [5]: > 100 µM | TGI [6]: > 100 µM | TGI [7]: > 100 µM | TGI [8]: > 100 µM | TGI [9]: > 100 µM

O=C1C(c2ccccc2)=C(c2ccccc2)C(c2ccccc2)/C1=C1\C(=O)C(c2ccccc2)=C(c2ccccc2)C1c1ccccc1 (stereo not drawn)
TGI [1]: > 100 µM | TGI [2]: > 100 µM | TGI [3]: > 100 µM | TGI [4]: > 100 µM | TGI [5]: > 100 µM | TGI [6]: > 100 µM | TGI [7]: > 100 µM | TGI [8]: > 100 µM

COC(=O)c1oc2c(C(=O)/C=C/c3ccc(OC)cc3)c(OCCCN3CCCCC3)ccc2c1C
GI50 [1]: 1.45 µM | TGI [1]: 2.82 µM | GI50 [2]: 0.901 µM | TGI [2]: 2.35 µM | GI50 [10]: 1.15 µM | TGI [10]: 2.5 µM | GI50 [4]: 1.3 µM | TGI [4]: 3.47 µM | GI50 [5]: 1.49 µM | TGI [5]: 3.22 µM | GI50 [6]: 1.6 µM | TGI [6]: 3.6 µM | GI50 [7]: 1.7 µM | TGI [7]: 3.66 µM | GI50 [8]: 1.67 µM | TGI [8]: 3.48 µM | GI50 [9]: 2.1 µM | TGI [9]: 8.92 µM

COc1ccc(Cc2ccccc2C(=O)O)c2ccccc12
TGI [1]: 54.4 µM | TGI [2]: 92.4 µM | TGI [10]: > 100 µM | TGI [4]: 67.3 µM | TGI [5]: > 100 µM | TGI [6]: 55.4 µM | TGI [7]: 42.9 µM | TGI [8]: > 100 µM | TGI [9]: > 100 µM

C[Si](C)(C)/C(Br)=C\CCN1C(=O)CCC1O (stereo not drawn)
TGI [1]: > 100 µM | TGI [2]: > 100 µM | TGI [4]: > 100 µM | TGI [5]: > 100 µM | TGI [6]: > 100 µM | TGI [7]: > 100 µM | TGI [9]: > 100 µM

C/C=C/C1(NS(=O)(=O)c2ccc(C)cc2)CCC(C(C)(C)C)CC1 (stereo not drawn)
TGI [2]: 93.7 µM | TGI [3]: 36.1 µM | TGI [4]: 51.7 µM | TGI [5]: 37.9 µM | TGI [6]: 26 µM | TGI [7]: 39 µM | TGI [8]: 49.7 µM | TGI [9]: > 100 µM

C=C1C(=O)O[C@H]2[C@H]1CC/C(COC(=O)CCC(=O)OC/C1=C/CC[C@@]3(C)O[C@H]3[C@H]3OC(=O)C(=C)[C@@H]3CC1)=C\CC[C@@]1(C)O[C@@H]21
GI50 [1]: 1.37 µM | TGI [1]: 2.75 µM | GI50 [2]: 1.54 µM | TGI [2]: 3.58 µM | GI50 [3]: 2.13 µM | TGI [3]: 4.4 µM | GI50 [4]: 2.9 µM | TGI [4]: 11.2 µM | GI50 [5]: 1.46 µM | TGI [5]: 3.03 µM | GI50 [6]: 1.43 µM | TGI [6]: 3.07 µM | GI50 [7]: 3.88 µM | TGI [7]: 16.6 µM | GI50 [8]: 3.21 µM | TGI [8]: 10.6 µM | GI50 [9]: 8.46 µM | TGI [9]: 25 µM

O=C(CC1C(=O)Nc2ccccc2S1=O)Nc1cccc(Cl)c1 (stereo not drawn)
TGI [1]: > 100 µM | TGI [2]: > 100 µM | TGI [3]: > 100 µM | TGI [10]: 29.9 µM | TGI [4]: > 100 µM | TGI [5]: > 55.1 µM | TGI [7]: > 81.5 µM | TGI [8]: > 77.6 µM | TGI [9]: > 88.9 µM

NS(=O)(=O)c1ccc(-n2nc(-c3ccc(Cl)cc3)cc2C2=CC(=O)C=CC2=O)cc1
GI50 [2]: 16.1 µM | TGI [2]: 32.2 µM | GI50 [3]: 18.3 µM | TGI [3]: 33 µM | GI50 [10]: 21.1 µM | TGI [10]: 69.9 µM | GI50 [4]: 18 µM | TGI [4]: 42.1 µM | GI50 [6]: 31 µM | TGI [6]: 87.2 µM | GI50 [7]: 16 µM | TGI [7]: 36.1 µM

CC(C)(C)c1cc(C(O)(C(F)(F)F)C(F)(F)F)c2c(c1)C(C(F)(F)F)(C(F)(F)F)OC(c1ccccc1)(C(C)(C)C)N2 (stereo not drawn)
TGI [2]: 13.7 µM | TGI [3]: 21.1 µM | TGI [4]: 10.3 µM | TGI [5]: 14.4 µM | TGI [6]: 8.38 µM | TGI [7]: 17.6 µM | TGI [9]: 17.7 µM

O=Cc1cc(O)c(O)c(O)c1-c1c(C=O)cc(O)c(O)c1O
TGI [1]: > 100 µM | TGI [2]: > 100 µM | TGI [3]: > 100 µM | TGI [4]: > 100 µM | TGI [5]: > 100 µM | TGI [6]: > 100 µM | TGI [7]: > 100 µM | TGI [8]: > 100 µM | TGI [9]: > 100 µM

CCN1C(=O)N(c2c(F)c(OC)cc(OC)c2F)Cc2cnc3[nH]c(CN4CCOCC4)cc3c21
GI50 [1]: 2.37 µM | TGI [1]: > 100 µM | GI50 [2]: 0.947 µM | TGI [2]: > 100 µM | GI50 [10]: 8.04 µM | TGI [10]: > 100 µM | GI50 [4]: 7.03 µM | TGI [4]: > 100 µM | GI50 [5]: 2.84 µM | TGI [5]: > 100 µM | GI50 [6]: 3.12 µM | TGI [6]: > 100 µM | GI50 [7]: 5.08 µM | TGI [7]: > 100 µM | GI50 [8]: 2.35 µM | TGI [8]: > 100 µM

CC(=O)OCCOCNC(=S)N/N=C(\C)c1ccco1
TGI [1]: > 100 µM | TGI [2]: > 100 µM | TGI [3]: > 100 µM | TGI [4]: > 100 µM | TGI [5]: > 100 µM | TGI [6]: > 100 µM | TGI [7]: > 100 µM | TGI [8]: > 100 µM | TGI [9]: > 100 µM

O=S1(=O)CSc2ccc3ccccc3c2-c2c1ccc1ccccc21
TGI [1]: > 100 µM | TGI [3]: > 100 µM | TGI [4]: > 100 µM | TGI [5]: > 100 µM | TGI [6]: > 100 µM | TGI [7]: > 100 µM | TGI [8]: > 100 µM | TGI [9]: > 100 µM

O=C(/C=C/c1ccccc1F)C(c1ccccc1)c1ccccc1
TGI [1]: 3.2 µM | TGI [2]: 23.8 µM | TGI [5]: 11.5 µM | TGI [6]: 8.29 µM | TGI [7]: 15 µM | TGI [9]: 5.46 µM

COc1ccccc1NC(=O)C1=C(C)NC(C)=C(C(=O)Nc2ccccc2OC)C1c1ccc(C(C)C)cc1
TGI [1]: > 100 µM | TGI [2]: > 100 µM | TGI [3]: > 100 µM | TGI [4]: > 100 µM | TGI [5]: > 100 µM | TGI [7]: > 100 µM | TGI [8]: > 100 µM | TGI [9]: > 100 µM

C[C@H](NC(=O)OC1C2C=CC(O)C1CC2)c1ccccc1 (stereo partly drawn)
TGI [1]: > 100 µM | TGI [2]: 33.6 µM | TGI [3]: > 100 µM | TGI [4]: > 100 µM | TGI [6]: > 100 µM | TGI [7]: > 100 µM | TGI [8]: > 100 µM | TGI [9]: > 100 µM

Cc1ccc(S(=O)(=O)N2CCCCC2CCO)cc1 (stereo not drawn)
TGI [2]: > 100 µM | TGI [3]: > 100 µM | TGI [4]: > 100 µM | TGI [5]: > 100 µM | TGI [6]: > 100 µM | TGI [7]: > 100 µM | TGI [8]: > 100 µM | TGI [9]: > 100 µM

Cn1cc(C(=O)C2CCCCC2)ccc1=O
TGI [1]: > 100 µM | TGI [2]: > 100 µM | TGI [3]: > 100 µM | TGI [4]: > 100 µM | TGI [5]: > 100 µM | TGI [6]: > 100 µM | TGI [7]: > 100 µM | TGI [8]: > 100 µM | TGI [9]: > 100 µM

Cc1cc(Cl)ccc1N1C(=O)C(=O)C(c2nc3ccccc3s2)C(=O)C1=O
TGI [2]: > 100 µM | TGI [4]: > 100 µM | TGI [5]: > 100 µM | TGI [6]: > 100 µM | TGI [7]: > 100 µM | TGI [8]: > 100 µM | TGI [9]: > 100 µM

CC(=O)O[C@H]1CC[C@@]2(C)C(=CC[C@@H]3C2CC[C@]2(C)Nc4oncc4CC32)C1 (stereo partly drawn)
TGI [2]: > 100 µM | TGI [3]: > 100 µM | TGI [4]: > 100 µM | TGI [5]: > 100 µM | TGI [7]: 61.4 µM | TGI [8]: > 100 µM
